Measurements: ChEMBL document CHEMBL4145653, “Biosynthetic Baeyer-Villiger Chemistry Enables Access to Two Anthracene Scaffolds from a Single Gene Cluster in Deep-Sea-Derived Streptomyces olivaceus SCSIO T05” (J Nat Prod, 2018)

Experiments:
[1] = target: T1, Alpha-2-macroglobulin (Homo sapiens, UniProt P01023); assay: Inhibition of alpha-2 macroglobulin (unknown origin)
T1 sequence (P01023 whole entry): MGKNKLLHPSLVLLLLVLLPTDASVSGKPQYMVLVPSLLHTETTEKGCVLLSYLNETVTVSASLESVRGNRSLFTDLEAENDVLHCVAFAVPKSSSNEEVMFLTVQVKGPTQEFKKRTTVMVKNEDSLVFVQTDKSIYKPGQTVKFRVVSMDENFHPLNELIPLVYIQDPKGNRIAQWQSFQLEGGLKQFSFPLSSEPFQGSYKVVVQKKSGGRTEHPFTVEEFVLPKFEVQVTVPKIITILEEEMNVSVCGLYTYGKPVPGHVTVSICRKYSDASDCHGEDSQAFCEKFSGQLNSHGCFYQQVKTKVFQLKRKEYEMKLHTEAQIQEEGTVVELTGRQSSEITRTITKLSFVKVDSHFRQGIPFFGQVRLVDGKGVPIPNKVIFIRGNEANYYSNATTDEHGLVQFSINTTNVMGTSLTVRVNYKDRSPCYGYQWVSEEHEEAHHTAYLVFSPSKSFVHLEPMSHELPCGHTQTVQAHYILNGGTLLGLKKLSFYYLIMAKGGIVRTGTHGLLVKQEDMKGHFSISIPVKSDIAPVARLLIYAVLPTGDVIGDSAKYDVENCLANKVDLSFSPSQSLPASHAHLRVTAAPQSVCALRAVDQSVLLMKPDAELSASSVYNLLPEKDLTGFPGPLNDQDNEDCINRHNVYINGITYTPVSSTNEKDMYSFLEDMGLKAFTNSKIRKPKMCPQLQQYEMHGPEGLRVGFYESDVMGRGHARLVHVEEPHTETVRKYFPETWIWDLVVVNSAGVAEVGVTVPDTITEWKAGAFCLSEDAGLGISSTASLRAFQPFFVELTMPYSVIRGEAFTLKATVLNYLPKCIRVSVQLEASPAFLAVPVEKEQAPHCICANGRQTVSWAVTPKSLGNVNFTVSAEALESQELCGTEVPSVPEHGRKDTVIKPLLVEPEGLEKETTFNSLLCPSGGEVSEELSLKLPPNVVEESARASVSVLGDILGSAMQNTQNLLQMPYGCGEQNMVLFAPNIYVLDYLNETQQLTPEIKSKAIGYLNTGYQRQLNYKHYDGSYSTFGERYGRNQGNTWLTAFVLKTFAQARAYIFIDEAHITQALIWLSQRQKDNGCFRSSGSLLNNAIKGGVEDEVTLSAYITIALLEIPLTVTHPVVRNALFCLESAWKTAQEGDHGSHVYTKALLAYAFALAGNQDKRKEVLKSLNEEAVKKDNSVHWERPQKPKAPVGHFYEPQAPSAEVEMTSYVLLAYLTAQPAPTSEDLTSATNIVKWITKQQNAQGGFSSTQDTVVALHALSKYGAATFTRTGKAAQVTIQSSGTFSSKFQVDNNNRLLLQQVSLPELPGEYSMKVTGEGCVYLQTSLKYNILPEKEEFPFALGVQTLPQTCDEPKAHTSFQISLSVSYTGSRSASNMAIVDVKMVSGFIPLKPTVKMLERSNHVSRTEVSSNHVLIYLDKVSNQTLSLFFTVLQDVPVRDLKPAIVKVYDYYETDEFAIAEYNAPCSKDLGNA

[2] = Inhibition of glutathione S-transferase (unknown origin); parameters: species or system Homo sapiens

Row | IC50 [1] [µM] | IC50 [2] [µM] | Compound
1 | 94 | 26.9 | CC(C)CC[C@@]1(O)c2cc3c(O)cccc3cc2C(=O)[C@H](C)[C@]1(O)C(=O)O
2 | 257 | – | CC(C)CC[C@]1(O)[C@@]2(O)C(=O)O[C@]13C(=Cc1cccc(O)c1[C@@H]3O)C(=O)[C@@H]2C
